Experimental data published in patent US4694018A, “Substituted 1,5-diphenyl-2-pyrrolepropionic acids and derivatives” (G. D. Serale & Co., priority 1985, dated 1987).

Columns and labels:
[1] = test system: bronchoconstricting effects; settings: versus histamine; cited from earlier work
[2] = molecular target: T1, 5-lipoxygenase (Rattus norvegicus, UniProt P12527); assay: Inhibition of 5-lipoxygenase, in vitro (5-HETE synthesis by RBL-1 homogenate 100,000×g supernatant); type: biochemical; settings: RBL-1 homogenate supernatant, 5-HETE from [1-14C]-arachidonic acid with Ca++; read-out: Rat Basophilic Leukemia Cell- Inhibition IC50
T1 construct: supernatant fraction of Rat Basophilic Leukemia Cell Homogenate (RBL-1) serves as a 5-lipoxygenase enzyme source; endogenous in cells; host or cells: RBL-1 (rat basophilic leukemia cells), 100,000×g supernatant of homogenate
T1 sequence (P12527 1-673): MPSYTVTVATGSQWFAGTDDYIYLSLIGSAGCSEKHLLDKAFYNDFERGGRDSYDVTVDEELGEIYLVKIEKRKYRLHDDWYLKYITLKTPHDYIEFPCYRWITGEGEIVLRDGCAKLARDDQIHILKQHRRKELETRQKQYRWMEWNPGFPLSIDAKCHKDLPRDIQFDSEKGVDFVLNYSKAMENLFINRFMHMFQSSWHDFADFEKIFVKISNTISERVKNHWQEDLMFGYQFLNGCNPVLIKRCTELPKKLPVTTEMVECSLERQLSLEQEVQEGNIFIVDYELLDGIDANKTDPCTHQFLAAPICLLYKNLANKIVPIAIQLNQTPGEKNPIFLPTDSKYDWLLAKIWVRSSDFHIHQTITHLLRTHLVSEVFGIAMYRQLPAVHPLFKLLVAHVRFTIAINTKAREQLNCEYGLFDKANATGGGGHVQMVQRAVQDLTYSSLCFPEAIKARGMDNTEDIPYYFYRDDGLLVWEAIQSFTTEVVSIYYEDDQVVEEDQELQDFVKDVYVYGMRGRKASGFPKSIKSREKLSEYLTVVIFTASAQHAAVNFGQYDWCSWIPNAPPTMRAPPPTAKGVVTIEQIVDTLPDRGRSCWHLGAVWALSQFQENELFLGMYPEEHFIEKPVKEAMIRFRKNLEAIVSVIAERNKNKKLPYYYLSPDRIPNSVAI
Method: (1) Inhibition of 5-lipoxygenase, in vitro: anti-inflammatory, anti-allergyactivities.
The 100,000×g supernatant fraction of Rat Basophilic Leukemia Cell Homogenate (RBL-1) serves as a 5-lipoxygenase enzyme source. The enzyme is incubated with [1-^14 C]-arachidonic acid and Ca++ in the presence and absence of test compound. The product of 5-lipoxygenase, 5-hydroxyeicosatetraenoic acid (5-HETE), is separated by thin-layer chromatography and measured by radioactivity. A compound inhibiting 5-HETE synthesis by 30% or more is considered active at that concentration.

[3] = test system: SRS synthesis by Rat Basophilic Leukemia Cell (RBL-1) cells; assay: Inhibition of slow reacting substance (SRS) biosynthesis in RBL-1 cells; type: cell-based; settings: ionophore A23187, guinea pig ileum bioassay
Method: (2) Inhibition of slow reacting substance (SRS) biosynthesis in cells.
SRS synthesis by Rat Basophilic Leukemia Cell (RBL-1) cells is induced by incubation of cells with ionophore A23187 alone and in combination with the test compound. The SRS released into the culture media is measured. The percent inhibition of SRS production is estimated by determining the doses of treated and control media needed in the tissue bath to produce equivalent contractions of segments of isolated guinea pig ileum.
Initial screening doses of test compounds are 1×10^-4 M and 1×10^-5 M.

Row | SMILES | IC50 [2] [µM] | potency relative to histamine in causing long lasting bronchoconstricting effects [1] | inhibition at 5 µM [3] [%]
1 | CCCCC/C=C\C\C=C/C=C/C=C/[C@@H](SC[C@H](NC(=O)CC[C@H](N)C(=O)O)C(=O)NCC(=O)O)[C@@H](O)CCCC(=O)O [LTC4] | – | at least 100 times | –
2 | NC(=O)CCc1ccc(-c2ccc(F)cc2)n1-c1cc(Cl)ccc1O [Example 4, 1-(5-chloro-2-hydroxyphenyl)-5-(4-fluorophenyl)-1H-pyrrole-2-propanamide] | 2.4 | – | –

The next lines start with results.

Row | IC50 [2] [µM] | SMILES | potency relative to histamine in causing long lasting bronchoconstricting effects [1] | inhibition at 5 µM [3] [%]
3 | 35 | COc1ccc(-c2ccc(CCC(=O)O)n2-c2cc(Cl)ccc2O)cc1 [Example 7, 1-(5-chloro-2-hydroxyphenyl)-5-(4-methoxyphenyl)-1H-pyrrole-2-propanoic acid] | – | –
4 | 10 | O=C(O)CCc1ccc(-c2ccc(Cl)cc2)n1-c1cc(Cl)ccc1O [Example 5, 1-(5-chloro-2-hydroxyphenyl)-5-(4-chlorophenyl)-1H-pyrrole-2-propanoic acid] | – | –
5 | 0.83 | O=C(O)CCc1ccc(-c2ccc(F)cc2)n1-c1cc(Cl)ccc1O [Example 1, 1-(5-chloro-2-hydroxyphenyl)-5-(4-fluorophenyl)-1H-pyrrole-2-propanoic acid] | – | 82
